In patent US11478466B2, “Small molecule promoting osteoblast differentiation” (Cornell University, priority 2019, dated 2022):

Columns and labels:
p38-α = test: Isoform-specific immunoprecipitation, p38-α activity in C2C12 cells; format: cell-based, mouse; details: C2C12, 10 μM DIPQUO
From the text: There are four separate p38 isoforms: α, β, γ, and δ. The respective roles of the α and β isoforms in bone differentiation have been dissected to the extent that p38-β is known to be involved specifically in skeletogenesis (Greenblatt et al., 2010), while p38-α has roles that are both wide-ranging and highly specific, for instance in dentition (Greenblatt et al., 2015). Accordingly, we used small interfering RNA-mediated knockdown to probe the specificity of DIPQUO to block the activity of one or the other isoform (FIG. 6E). […] To confirm the biological significance of this observation, the α and β isoforms were immunoprecipitated from C2C12 cells and analyzed for relative activity levels.

zebrafish larvae = test: Larval zebrafish notochord ossification model (alizarin red); format: in vivo, Danio rerio; details: 15 μM, 24-h pulse 7-8 dpf, stained at 9 dpf, vs DMSO or inert analogs
From the text: DIPQUO Promotes and Accelerates Bone Mineralization In Vivo To address whether the observed effects of DIPQUO on osteoblast differentiation and maturation could extend to an in vivo bone model, we utilized the zebrafish, Danio rerio. First, zebrafish were used as a model system to examine developmental ossification via direct vertebral specification through conversion of the notochord sheath (Inohaya et al., 2007; Laue et al., 2008). During zebrafish larval stages, the extent and pattern of ossification observable at discrete developmental time points are susceptible to perturbation by cytokines or genetic modulation. The contribution of extrinsic factors to notochord ossification and patterning can be measured by alizarin red staining in a manner analogous to its application in gauging osteoblast maturation in cultured cells.
Animals studies were performed according to protocols approved by the WCMC IACUC. Wildtype (AB/TU hybrid) zebrafish were maintained at 28.5° C. Larval fish were treated from 7 dpf to 8 dpf in tank water with DMSO or with a 24-hour pulse of 15 μM DIPQUO or inert analog BT344 or BT345, and were fixed at 9 dpf in 4% paraformaldehyde overnight rocking at 4° C. Fixed larvae were washed in PBS-0.1% Tween-20 (PBST), followed by 50% ethanol/50% PBST. […] Images were acquired on a Zeiss LSM 800 confocal microscope and Sp7^+/col10a1^+ cells quantified using ImageJ.

p38 MAPK = test: Western blotting of p38 MAPK in BRITER cells; format: cell-based, mouse; details: BMP-2/BMP-4 repression by tamoxifen
Protocol: Cells were maintained in DMEM with 10% FBS. For analysis of DIPQUO effects independent of BMP signaling, BMP-2 and BMP-4 knockdown was achieved by treating cells overnight with 1 μM 4-hydroxytamoxifen (4-OHT), followed by continued maintenance in 1 μM 4-OHT. Cells were serum-starved for at least 6 hours before treatment with recombinant BMP protein or DIPQUO as noted in figure legends.
Whole cell extracts were collected from C2C12 or BRITER cells in complete lysis buffer (20 mM Tris, 150 mM NaCl, 50 mM NaF, 1% NP40 substitute, HALT protease inhibitor cocktail (ThermoScientific). Proteins were resolved by electrophoresis on pre-cast 10% NuPage Bis-Tris gels (Invitrogen) and transferred to PVDF membranes (Bio-Rad). Membranes were blocked in 5% BSA-TBS-0.5% Tween-20 for 15 minutes, then incubated at 4° overnight with primary antibodies. Antibodies used were: rabbit anti-phospho-p38 MAPK (cat. no. 9211), anti-p38 MAPK XP (8690), anti-phospho-SMAD1/5 (9516), anti-SMAD1 XP (6944), anti-phospho-SMAD2/3 (8828), anti-SMAD2/3 XP (8685), anti-phospho-JNK (4668), anti-SAPK/JNK (9252), anti-phospho-Akt XP (4060), pan anti-Akt (4691), anti-phospho ERK p42/p44 (4377), anti-ERK p42/p44 (9102), anti-phospho-MKK3/6 (12280), anti-MKK3 (8535), anti-phospho-TAK1 (4531), anti-TAK1 (5206), anti-HA (3274), and anti-FLAG (14793); all from Cell Signaling); and mouse anti-p38α (cat. no. […]

C2C12 cells = test: C2C12 culture morphology and survival under treatment; format: cell-based, mouse; design: effect of continued treatment on C2C12 culture: dose or concentration left out as unconfirmed
JNK p54 = test: Western blotting of JNK in C2C12 cells; format: cell-based, mouse
Protocol: Whole cell extracts were collected from C2C12 or BRITER cells in complete lysis buffer (20 mM Tris, 150 mM NaCl, 50 mM NaF, 1% NP40 substitute, HALT protease inhibitor cocktail (ThermoScientific). Proteins were resolved by electrophoresis on pre-cast 10% NuPage Bis-Tris gels (Invitrogen) and transferred to PVDF membranes (Bio-Rad). Membranes were blocked in 5% BSA-TBS-0.5% Tween-20 for 15 minutes, then incubated at 4° overnight with primary antibodies. Antibodies used were: rabbit anti-phospho-p38 MAPK (cat. no. 9211), anti-p38 MAPK XP (8690), anti-phospho-SMAD1/5 (9516), anti-SMAD1 XP (6944), anti-phospho-SMAD2/3 (8828), anti-SMAD2/3 XP (8685), anti-phospho-JNK (4668), anti-SAPK/JNK (9252), anti-phospho-Akt XP (4060), pan anti-Akt (4691), anti-phospho ERK p42/p44 (4377), anti-ERK p42/p44 (9102), anti-phospho-MKK3/6 (12280), anti-MKK3 (8535), anti-phospho-TAK1 (4531), anti-TAK1 (5206), anti-HA (3274), and anti-FLAG (14793); all from Cell Signaling); and mouse anti-p38α (cat. no. 33-1300), anti-p38β (33-8700; both ThermoFisher) and anti-β-actin (Sigma A1978). Proteins were visualized with HRP-conjugated secondary antibodies (Bio-Rad) with WestPico (ThermoFisher) or Immobilon (Millipore) chemiluminescence reagents. Images were obtained and analyzed for relative densitometric relationships on a LI-COR C-DiGit scanner using Image Studio software.

## Cc1cc(C)c2[nH]c(=O)c(-c3[nH]cnc3-c3ccccc3)cc2c1 [RU-0226606, 6,8-dimethyl-3-(4-phenyl-1H-imidazol-5-yl)quinolin-2(1H)-one]
p38-α
  p38-α isoform activity after immunoprecipitation: suppressed
Zebrafish larvae
  mineralization of vertebral primordia (alizarin red): accelerate and accentuate mineralization of incipient vertebral primordia
p38 MAPK
  p38 MAPK activation in BRITER cells: maintained the ability to activate p38 MAPK even under conditions of BMP repression
C2C12 cells; C2C12
  cellular morphology: rapid rearrangement of cellular architecture from fibroblast-like to a cuboidal phenotype
C2C12 cells; continued treatment, partially rescued by IGF-1
  effect of continued treatment on C2C12 culture: attrition of the C2C12 culture
JNK p54
  JNK p54 signaling: suppressed the p54 isoform
